Reference: ChEMBL document CHEMBL3352784, “Investigation of Cardiovascular Effects of Tetrahydro-β-carboline sstr3 antagonists” (ACS Med Chem Lett, 2014)

Columns and labels:
[1] = biological target: T1, Somatostatin receptor type 3 (Mus musculus, UniProt P30935); assay: Antagonist activity at mouse SSTR3 expressed in CHO cells assessed as cAMP level by fluorescence analysis; type: functional, cell-based
[2] = biological target: T2, Somatostatin receptor type 3 (Homo sapiens, UniProt P32745)
Description: Antagonist activity at human SSTR3 expressed in CHO cells assessed as cAMP level by fluorescence analysis

[3] = biological target: T2, Somatostatin receptor type 3; assay: biochemical
Description: Displacement of [125I]SS-14 from human SSTR3 expressed in CHO cells by TopCount analyzer

[4] = biological target: Somatostatin receptor type 3 (Mus musculus) (UniProt P30935); assay: Antagonist activity at mouse SSTR3 expressed in CHO cells assessed as cAMP level by fluorescence analysis relative to control; type: functional, cell-based; parameters: concentration or dose not given beside the values; conditions: concentration not given here
Chain of Somatostatin receptor type 3 (Mus musculus) (P30935 whole entry): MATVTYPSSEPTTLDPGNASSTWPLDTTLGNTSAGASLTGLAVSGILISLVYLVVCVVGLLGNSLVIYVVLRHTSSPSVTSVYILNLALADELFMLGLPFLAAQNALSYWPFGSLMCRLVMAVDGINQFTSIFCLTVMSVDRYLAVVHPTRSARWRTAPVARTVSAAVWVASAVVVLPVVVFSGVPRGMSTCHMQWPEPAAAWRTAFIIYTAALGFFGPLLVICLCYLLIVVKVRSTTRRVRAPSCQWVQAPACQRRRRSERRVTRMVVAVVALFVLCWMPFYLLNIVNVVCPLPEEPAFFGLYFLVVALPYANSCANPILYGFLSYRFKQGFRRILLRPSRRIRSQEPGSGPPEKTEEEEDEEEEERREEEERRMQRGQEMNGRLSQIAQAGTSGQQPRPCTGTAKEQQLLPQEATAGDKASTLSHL

[5] = biological target: Voltage-gated inwardly rectifying potassium channel KCNH2 (Homo sapiens, UniProt Q12809)
Chain of Voltage-gated inwardly rectifying potassium channel KCNH2 (Q12809 whole entry): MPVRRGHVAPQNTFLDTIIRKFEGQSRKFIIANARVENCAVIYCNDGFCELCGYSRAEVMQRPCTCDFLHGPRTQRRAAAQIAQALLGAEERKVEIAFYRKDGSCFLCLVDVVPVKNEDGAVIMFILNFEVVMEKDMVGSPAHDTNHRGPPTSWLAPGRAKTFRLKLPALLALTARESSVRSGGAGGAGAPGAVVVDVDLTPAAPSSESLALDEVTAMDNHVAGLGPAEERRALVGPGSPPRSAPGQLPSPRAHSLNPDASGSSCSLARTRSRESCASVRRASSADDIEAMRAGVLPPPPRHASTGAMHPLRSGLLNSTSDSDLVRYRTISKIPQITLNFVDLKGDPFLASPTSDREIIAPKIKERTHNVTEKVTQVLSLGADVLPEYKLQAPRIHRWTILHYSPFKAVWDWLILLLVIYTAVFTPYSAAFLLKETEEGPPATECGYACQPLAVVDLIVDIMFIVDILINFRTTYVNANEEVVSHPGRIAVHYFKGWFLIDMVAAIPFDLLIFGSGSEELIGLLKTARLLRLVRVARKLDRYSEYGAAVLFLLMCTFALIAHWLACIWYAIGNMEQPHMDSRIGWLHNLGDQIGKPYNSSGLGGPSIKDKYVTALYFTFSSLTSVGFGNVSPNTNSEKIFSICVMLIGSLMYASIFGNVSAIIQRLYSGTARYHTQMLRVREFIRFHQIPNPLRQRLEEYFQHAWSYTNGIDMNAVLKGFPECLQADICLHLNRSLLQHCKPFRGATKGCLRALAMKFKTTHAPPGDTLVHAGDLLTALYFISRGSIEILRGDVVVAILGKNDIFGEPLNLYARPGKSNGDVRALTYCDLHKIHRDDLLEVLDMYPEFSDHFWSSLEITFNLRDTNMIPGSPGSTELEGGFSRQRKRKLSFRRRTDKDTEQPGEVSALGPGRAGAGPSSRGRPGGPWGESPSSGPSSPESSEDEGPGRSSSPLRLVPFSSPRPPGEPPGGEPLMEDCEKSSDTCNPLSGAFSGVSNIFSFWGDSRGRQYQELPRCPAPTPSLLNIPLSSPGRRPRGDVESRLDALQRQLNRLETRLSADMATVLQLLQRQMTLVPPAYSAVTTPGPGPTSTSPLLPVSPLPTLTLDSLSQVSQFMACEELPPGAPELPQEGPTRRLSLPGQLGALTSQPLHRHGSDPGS
Description: Inhibition of human ERG by MK-499 displacement binding analysis

[6] = biological target: T1, Somatostatin receptor type 3; type: cell-based, CHO
[7] = Oral bioavailability in mouse; type: ADME, organism-based; conditions: in vivo
[8] = biological target: Somatostatin receptor type 1 (Homo sapiens, UniProt P30872); type: cell-based, CHO
Chain of Somatostatin receptor type 1 (P30872 whole entry): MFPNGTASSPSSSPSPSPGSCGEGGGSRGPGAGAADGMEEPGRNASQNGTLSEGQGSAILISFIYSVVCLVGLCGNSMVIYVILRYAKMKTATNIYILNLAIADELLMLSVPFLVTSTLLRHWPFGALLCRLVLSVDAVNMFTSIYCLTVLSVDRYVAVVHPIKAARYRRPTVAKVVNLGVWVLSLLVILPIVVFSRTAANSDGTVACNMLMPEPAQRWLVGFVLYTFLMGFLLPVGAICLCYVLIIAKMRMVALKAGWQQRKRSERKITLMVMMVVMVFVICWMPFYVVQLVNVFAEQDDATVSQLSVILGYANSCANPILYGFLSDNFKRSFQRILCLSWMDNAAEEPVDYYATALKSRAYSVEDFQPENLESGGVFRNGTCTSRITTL

[9] = tested on: Mus musculus; assay: Antidiabetic activity in C57BL/6 mouse assessed as reduction in glucose excursion at 10 mg/kg, po by oGTT assay relative to MK-4256; type: functional
[10] = Plasma concentration in C57BL/6 mouse at 10 mg/kg, po after 2.5 hrs; type: ADME, organism-based; parameters: dose 10 mg/kg, route oral
[11] = tested on: Mus musculus; assay: Antidiabetic activity in C57BL/6 mouse assessed as reduction in glucose excursion at 1 mg/kg, ip by oGTT assay relative to MK-4256; type: functional; conditions: C57BL/6, ip, route intraperitoneal
[12] = Clearance in mouse; type: ADME, organism-based; conditions: in vivo
[13] = in vivo; conditions: dog, iv, 10 mg/kg
[14] = in vivo; conditions: dog, iv, 50 mg/kg
[15] = tested on: Mus musculus; assay: Antidiabetic activity in C57BL/6 mouse assessed as reduction in glucose excursion at 3 mg/kg, po by oGTT assay relative to MK-4256; type: functional
[16] = Plasma concentration in C57BL/6 mouse at 1 mg/kg, ip after 2.5 hrs; type: ADME, organism-based; parameters: dose 1 mg/kg, route intraperitoneal
[17] = tested on: Canis familiaris; assay: Toxicity in anesthetized vagus-intact cardiovascular dog model assessed as QTc interval prolongation at 909 uM plasma concentration; type: organism-based, Canis lupus familiaris
[18] = Plasma concentration in C57BL/6 mouse at 3 mg/kg, po after 2.5 hrs; type: ADME, organism-based; parameters: dose 3 mg/kg, route oral
[19] = tested on: Mus musculus; assay: Antidiabetic activity in C57BL/6 mouse assessed as reduction in glucose excursion at 3 mg/kg, po by oGTT assay relative to control; type: functional; conditions: C57BL/6, read-out: INH
[20] = in vivo; conditions: dog, iv, 20 mg/kg
[21] = biological target: Somatostatin receptor type 2 (Homo sapiens, UniProt P30874); type: cell-based, CHO
Chain of Somatostatin receptor type 2 (P30874 whole entry): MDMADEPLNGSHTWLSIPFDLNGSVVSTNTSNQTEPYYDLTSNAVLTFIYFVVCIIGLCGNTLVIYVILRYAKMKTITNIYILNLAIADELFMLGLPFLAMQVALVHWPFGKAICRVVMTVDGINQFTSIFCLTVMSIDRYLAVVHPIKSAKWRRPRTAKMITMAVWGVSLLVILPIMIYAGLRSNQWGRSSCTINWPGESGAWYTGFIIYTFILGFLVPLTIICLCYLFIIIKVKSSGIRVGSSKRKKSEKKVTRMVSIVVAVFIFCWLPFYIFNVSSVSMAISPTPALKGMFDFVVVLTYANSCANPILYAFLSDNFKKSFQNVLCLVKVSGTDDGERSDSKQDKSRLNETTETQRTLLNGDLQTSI

[22] = biological target: Somatostatin receptor type 4 (Homo sapiens, UniProt P31391); type: cell-based, CHO
Chain of Somatostatin receptor type 4 (P31391 whole entry): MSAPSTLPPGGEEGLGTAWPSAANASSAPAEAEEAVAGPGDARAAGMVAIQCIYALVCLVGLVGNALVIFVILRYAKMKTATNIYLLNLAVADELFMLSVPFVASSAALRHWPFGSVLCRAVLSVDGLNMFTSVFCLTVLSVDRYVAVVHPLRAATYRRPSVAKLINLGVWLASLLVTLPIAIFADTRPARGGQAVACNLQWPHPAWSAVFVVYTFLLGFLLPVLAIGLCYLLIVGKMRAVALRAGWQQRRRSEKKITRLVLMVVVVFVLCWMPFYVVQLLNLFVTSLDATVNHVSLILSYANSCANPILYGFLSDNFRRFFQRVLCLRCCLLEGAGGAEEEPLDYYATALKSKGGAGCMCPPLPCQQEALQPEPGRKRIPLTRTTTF

[23] = biological target: Somatostatin receptor type 5 (Homo sapiens, UniProt P35346); type: cell-based, CHO
Chain of Somatostatin receptor type 5 (P35346 whole entry): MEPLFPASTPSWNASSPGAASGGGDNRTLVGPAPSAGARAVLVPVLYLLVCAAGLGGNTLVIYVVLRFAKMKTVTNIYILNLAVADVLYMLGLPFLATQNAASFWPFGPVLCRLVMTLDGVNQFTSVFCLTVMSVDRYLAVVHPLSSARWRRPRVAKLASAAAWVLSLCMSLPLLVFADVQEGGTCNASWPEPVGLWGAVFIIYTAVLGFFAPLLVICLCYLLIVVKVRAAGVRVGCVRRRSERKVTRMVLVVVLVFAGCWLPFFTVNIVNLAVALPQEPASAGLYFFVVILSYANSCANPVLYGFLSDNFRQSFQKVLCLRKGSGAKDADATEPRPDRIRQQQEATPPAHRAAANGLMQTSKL

[24] = Half life in mouse; type: ADME, organism-based; conditions: in vivo

T2 sequence (P32745 whole entry): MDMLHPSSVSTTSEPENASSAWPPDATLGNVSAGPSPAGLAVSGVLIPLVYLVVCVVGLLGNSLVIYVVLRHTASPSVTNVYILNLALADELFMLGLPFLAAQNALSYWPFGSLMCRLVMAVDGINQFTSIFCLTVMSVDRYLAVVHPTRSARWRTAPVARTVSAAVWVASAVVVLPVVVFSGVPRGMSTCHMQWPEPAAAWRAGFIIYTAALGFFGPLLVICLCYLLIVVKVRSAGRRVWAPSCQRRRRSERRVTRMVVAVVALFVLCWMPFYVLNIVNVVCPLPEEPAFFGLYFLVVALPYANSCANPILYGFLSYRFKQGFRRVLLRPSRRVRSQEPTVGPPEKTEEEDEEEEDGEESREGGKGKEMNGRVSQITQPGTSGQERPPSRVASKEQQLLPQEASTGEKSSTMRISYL
T1 sequence (P30935 whole entry): as the sequence (P30935 whole entry) above

Cn1cc(C2(c3cc(C(=O)O)ccn3)N[C@@H](c3nc(-c4ccc(F)cc4)c[nH]3)Cc3c2[nH]c2ccccc32)cn1 (single isomer, unassigned; 3B) [listing 1 of 2 here]
IC50 [1]: 17.1 nM | IC50 [2]: 52.3 nM | IC50 [3]: 72.7 nM

Cn1cc(C2(c3cc(C(=O)O)ccn3)N[C@@H](c3nc(-c4ccc(F)cc4)c[nH]3)Cc3c2[nH]c2ccccc32)cn1 (single isomer, unassigned; 3A) [listing 1 of 2 here]
inhibition [4]: 81%

CCOC(=O)c1ccc(C2(c3cnn(C)c3)N[C@@H](c3nc(-c4ccc(F)cc4)c[nH]3)Cc3c2[nH]c2ccccc32)nc1 (single isomer, unassigned; 9B) [listing 1 of 2 here]
IC50 [1]: 14.2 nM | IC50 [2]: 31.6 nM | IC50 [3]: 2.91 nM

CCOC(=O)c1cncc([C@]2(c3cnn(C)c3)N[C@@H](c3nc(-c4ccc(F)cc4)c[nH]3)Cc3c2[nH]c2ccccc32)c1
IC50 [1]: 0.35 nM | IC50 [5]: 2260 nM | IC50 [2]: 0.15 nM | inhibition [4]: 99% | IC50 [3]: 0.78 nM

Cn1cc(C2(c3ccc(C(=O)O)cn3)N[C@@H](c3nc(-c4ccc(F)cc4)c[nH]3)Cc3c2[nH]c2ccccc32)cn1 (single isomer, unassigned; 5A) [listing 1 of 2 here]
IC50 [1]: 57.1 nM

Cn1cc(C2(c3ccc(C(=O)O)cn3)N[C@@H](c3nc(-c4ccc(F)cc4)c[nH]3)Cc3c2[nH]c2ccccc32)cn1 (single isomer, unassigned; 5B) [listing 1 of 2 here]
IC50 [1]: 1860 nM

Cn1cc([C@@]2(c3cncc(C(=O)O)c3)N[C@@H](c3nc(-c4ccc(F)cc4)c[nH]3)Cc3c2[nH]c2ccccc32)cn1
IC50 [1]: 0.16 nM | IC50 [2]: 0.52 nM | inhibition [4]: 67% | IC50 [3]: 1.22 nM

Cn1cc(C2(c3cccc(C(=O)O)n3)N[C@@H](c3nc(-c4ccc(F)cc4)c[nH]3)Cc3c2[nH]c2ccccc32)cn1 (single isomer, unassigned; 2A) [listing 1 of 2 here]
IC50 [1]: 34 nM | IC50 [2]: 67 nM | IC50 [3]: 4.41 nM | IC50 [6]: 3.93 nM

Cn1cc(C2(c3ccc(C(=O)O)cn3)N[C@@H](c3nc(-c4ccc(F)cc4)c[nH]3)Cc3c2[nH]c2ccccc32)cn1 (single isomer, unassigned; 5A) [listing 2 of 2 here]
inhibition [4]: 87%

CCOC(=O)c1cncc([C@@]2(c3cnn(C)c3)N[C@@H](c3nc(-c4ccc(F)cc4)c[nH]3)Cc3c2[nH]c2ccccc32)c1
IC50 [1]: 8.37 nM | IC50 [5]: 2520 nM | IC50 [2]: 24 nM | inhibition [4]: 107% | IC50 [3]: 3.36 nM

CCOC(=O)c1cccc(C2(c3cnn(C)c3)N[C@@H](c3nc(-c4ccc(F)cc4)c[nH]3)Cc3c2[nH]c2ccccc32)n1 (single isomer, unassigned; 6A) [listing 1 of 2 here]
inhibition [4]: 80%

CCOC(=O)c1cccc(C2(c3cnn(C)c3)N[C@@H](c3nc(-c4ccc(F)cc4)c[nH]3)Cc3c2[nH]c2ccccc32)n1 (single isomer, unassigned; 6B) [listing 1 of 2 here]
IC50 [1]: 3.48 nM | IC50 [2]: 5.36 nM | IC50 [3]: 1.52 nM | IC50 [6]: 0.7 nM

Cn1cc(C2(c3ccc(C(=O)O)cn3)N[C@@H](c3nc(-c4ccc(F)cc4)c[nH]3)Cc3c2[nH]c2ccccc32)cn1 (single isomer, unassigned; 5B) [listing 2 of 2 here]
inhibition [4]: 51%

Cn1cc(C2(c3cc(C(=O)O)ccn3)N[C@@H](c3nc(-c4ccc(F)cc4)c[nH]3)Cc3c2[nH]c2ccccc32)cn1 (single isomer, unassigned; 3B) [listing 2 of 2 here]
inhibition [4]: 70%

CCOC(=O)c1ccc(C2(c3cnn(C)c3)N[C@@H](c3nc(-c4ccc(F)cc4)c[nH]3)Cc3c2[nH]c2ccccc32)nc1 (single isomer, unassigned; 9B) [listing 2 of 2 here]
inhibition [4]: 66%

CCOC(=O)c1cccc(C2(c3cnn(C)c3)N[C@@H](c3nc(-c4ccc(F)cc4)c[nH]3)Cc3c2[nH]c2ccccc32)n1 (single isomer, unassigned; 6B) [listing 2 of 2 here]
inhibition [4]: 87%

Cn1cc(C2(c3cccc(C(=O)O)n3)N[C@@H](c3nc(-c4ccc(F)cc4)c[nH]3)Cc3c2[nH]c2ccccc32)cn1 (single isomer, unassigned; 2A) [listing 2 of 2 here]
inhibition [4]: 101%

CCOC(=O)c1ccc(C2(c3cnn(C)c3)N[C@@H](c3nc(-c4ccc(F)cc4)c[nH]3)Cc3c2[nH]c2ccccc32)nc1 (single isomer, unassigned; 9A) [listing 1 of 2 here]
inhibition [4]: 96%

Cn1cc(C2(c3cccc(C(=O)O)n3)N[C@@H](c3nc(-c4ccc(F)cc4)c[nH]3)Cc3c2[nH]c2ccccc32)cn1 (single isomer, unassigned; 2B) [listing 1 of 2 here]
IC50 [1]: 111 nM | IC50 [2]: 105 nM | IC50 [3]: 74.7 nM

CCOC(=O)c1ccc(C2(c3cnn(C)c3)N[C@@H](c3nc(-c4ccc(F)cc4)c[nH]3)Cc3c2[nH]c2ccccc32)nc1 (single isomer, unassigned; 9A) [listing 2 of 2 here]
IC50 [1]: 1.53 nM | IC50 [2]: 5.25 nM | IC50 [3]: 1.72 nM

CCOC(=O)c1ccnc(C2(c3cnn(C)c3)N[C@@H](c3nc(-c4ccc(F)cc4)c[nH]3)Cc3c2[nH]c2ccccc32)c1 (single isomer, unassigned)
IC50 [1]: 0.36 nM | IC50 [2]: 0.78 nM | inhibition [4]: 91% | IC50 [3]: 0.64 nM | IC50 [6]: 0.41 nM

CCOC(=O)c1ccnc([C@@]2(c3cnn(C)c3)N[C@@H](c3nc(-c4ccc(F)cc4)c[nH]3)Cc3c2[nH]c2ccccc32)c1
IC50 [1]: 14.7 nM | IC50 [2]: 47.1 nM | inhibition [4]: 85% | IC50 [3]: 4.87 nM

Cn1cc(C2(c3cccc(C(=O)O)n3)N[C@@H](c3nc(-c4ccc(F)cc4)c[nH]3)Cc3c2[nH]c2ccccc32)cn1 (single isomer, unassigned; 2B) [listing 2 of 2 here]
inhibition [4]: 69%

CCOC(=O)c1cccc(C2(c3cnn(C)c3)N[C@@H](c3nc(-c4ccc(F)cc4)c[nH]3)Cc3c2[nH]c2ccccc32)n1 (single isomer, unassigned; 6A) [listing 2 of 2 here]
IC50 [1]: 0.58 nM | IC50 [2]: 1.97 nM | IC50 [3]: 0.83 nM | IC50 [6]: 0.41 nM

Cn1cc(C2(c3cc(C(=O)O)ccn3)N[C@@H](c3nc(-c4ccc(F)cc4)c[nH]3)Cc3c2[nH]c2ccccc32)cn1 (single isomer, unassigned; 3A) [listing 2 of 2 here]
IC50 [1]: 0.73 nM | bioavailability [7]: 1.5% | IC50 [8]: > 10000 nM | inhibition in vivo at 10 mg/kg [9]: 35% | concentration at 2.5 h [10]: 0.003 µM | inhibition in vivo at 1 mg/kg [11]: 64% | clearance [12]: 15.6 mL/min/kg | IC50 [2]: 1.71 nM | Cmax at 0.5 h [13]: 38 µM | Cmax at 0.5 h [14]: 909 µM | inhibition in vivo at 3 mg/kg [15]: 24% | concentration at 2.5 h [16]: 0.074 µM | Activity [17]: Non-toxic | concentration at 2.5 h [18]: 0.002 µM | inhibition in vivo at 3 mg/kg [19]: 24% | Cmax at 0.5 h [20]: 199 µM | IC50 [21]: > 10000 nM | IC50 [22]: > 10000 nM | IC50 [3]: 2.13 nM | IC50 [23]: > 10000 nM | half-life [24]: 2.62 h | IC50 [6]: 1.72 nM

Cn1cc([C@]2(c3cncc(C(=O)O)c3)N[C@@H](c3nc(-c4ccc(F)cc4)c[nH]3)Cc3c2[nH]c2ccccc32)cn1
IC50 [1]: 2.9 nM | IC50 [2]: 6.12 nM | inhibition [4]: 80% | IC50 [3]: 10.8 nM
